In ChEMBL document CHEMBL1201862, “PubChem BioAssay data set” (2004):
Calls of active or inactive are those of the source.

Columns and labels:
[1] = target: T1, Histone-lysine N-methyltransferase NSD2 (Homo sapiens, UniProt O96028); format: biochemical
T1 sequence (O96028 whole entry): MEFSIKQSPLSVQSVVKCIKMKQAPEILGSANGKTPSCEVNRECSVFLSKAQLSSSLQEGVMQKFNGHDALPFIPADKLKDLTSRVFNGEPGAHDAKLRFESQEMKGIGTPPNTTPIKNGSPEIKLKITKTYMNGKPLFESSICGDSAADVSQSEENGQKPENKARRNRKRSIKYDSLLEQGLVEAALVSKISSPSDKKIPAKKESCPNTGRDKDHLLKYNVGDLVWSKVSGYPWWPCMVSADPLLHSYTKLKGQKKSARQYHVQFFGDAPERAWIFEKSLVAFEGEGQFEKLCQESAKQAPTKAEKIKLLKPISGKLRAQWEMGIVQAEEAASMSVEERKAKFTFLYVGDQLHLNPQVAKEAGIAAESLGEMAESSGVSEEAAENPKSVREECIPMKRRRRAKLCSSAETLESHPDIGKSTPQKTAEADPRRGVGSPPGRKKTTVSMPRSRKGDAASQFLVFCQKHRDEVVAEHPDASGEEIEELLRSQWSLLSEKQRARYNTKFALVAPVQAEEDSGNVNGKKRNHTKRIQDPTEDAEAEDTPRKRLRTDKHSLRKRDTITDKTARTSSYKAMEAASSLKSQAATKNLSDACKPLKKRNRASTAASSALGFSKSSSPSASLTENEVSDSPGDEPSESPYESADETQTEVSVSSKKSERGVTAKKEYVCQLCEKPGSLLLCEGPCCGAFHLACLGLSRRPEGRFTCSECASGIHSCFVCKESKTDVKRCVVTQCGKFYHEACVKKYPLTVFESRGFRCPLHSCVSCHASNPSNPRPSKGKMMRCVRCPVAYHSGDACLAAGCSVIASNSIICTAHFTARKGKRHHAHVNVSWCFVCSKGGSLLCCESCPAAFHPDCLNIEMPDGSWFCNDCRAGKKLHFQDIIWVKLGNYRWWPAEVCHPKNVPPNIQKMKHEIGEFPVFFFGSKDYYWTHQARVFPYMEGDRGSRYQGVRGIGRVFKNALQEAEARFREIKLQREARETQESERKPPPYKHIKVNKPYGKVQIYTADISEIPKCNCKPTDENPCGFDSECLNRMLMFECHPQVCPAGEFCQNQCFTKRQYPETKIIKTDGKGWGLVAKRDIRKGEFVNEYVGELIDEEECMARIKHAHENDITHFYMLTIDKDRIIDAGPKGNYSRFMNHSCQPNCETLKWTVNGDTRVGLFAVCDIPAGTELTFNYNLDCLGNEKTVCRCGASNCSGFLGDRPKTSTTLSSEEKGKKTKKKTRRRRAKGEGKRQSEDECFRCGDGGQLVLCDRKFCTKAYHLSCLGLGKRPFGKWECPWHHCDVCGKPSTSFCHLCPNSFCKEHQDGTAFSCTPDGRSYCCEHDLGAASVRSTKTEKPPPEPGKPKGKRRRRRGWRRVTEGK

[2] = C. albicans growth with fluconazole, confirmation, fluorescence, retest (AID 2467); format: functional, cell-based
[3] = HEp-2 cell cytotoxicity, dose response, cytotoxicity control for RSV inhibitor project, HTS (AID 2410); format: functional; conditions: human respiratory syncytial virus
[4] = NIH-3T3 fibroblast cytotoxicity, dose response, cytotoxicity control, cell-based, fluorescence, Alamar Blue, secondary assay (AID 2327); format: functional;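 also: NIH-3T3 mouse fibroblasts cultured with fluconazole at 8 µg/mL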
[5] = target: Genome polyprotein (dengue virus type 2, UniProt P29990); test: Dengue-2 NS5 methyltransferase inhibitors, primary screen, biochemical, confirmation dose response (AID 588689); format: functional
[6] = target: T2, Corticotropin-releasing factor receptor 2/Corticotropin-releasing factor-binding protein (Homo sapiens, UniProt P24387+Q13324); test: Dose Response confirmation of uHTS hits for small molecule antagonists of the CRF-binding protein and CRF-R2 receptor complex.; format: functional; conditions: read-out: IC50_Mean
T2 sequence (Q13324 whole entry): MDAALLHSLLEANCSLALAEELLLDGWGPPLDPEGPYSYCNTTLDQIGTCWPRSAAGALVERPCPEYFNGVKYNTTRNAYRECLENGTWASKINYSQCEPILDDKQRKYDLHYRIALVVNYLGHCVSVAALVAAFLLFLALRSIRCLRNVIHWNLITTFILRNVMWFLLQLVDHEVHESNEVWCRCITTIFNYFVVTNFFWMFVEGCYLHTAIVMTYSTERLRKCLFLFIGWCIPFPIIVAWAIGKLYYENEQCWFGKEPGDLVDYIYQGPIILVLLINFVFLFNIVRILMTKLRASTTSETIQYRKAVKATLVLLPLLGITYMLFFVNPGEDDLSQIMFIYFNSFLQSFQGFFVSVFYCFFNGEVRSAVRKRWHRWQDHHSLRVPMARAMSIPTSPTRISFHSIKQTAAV
T2 sequence (P24387 whole entry): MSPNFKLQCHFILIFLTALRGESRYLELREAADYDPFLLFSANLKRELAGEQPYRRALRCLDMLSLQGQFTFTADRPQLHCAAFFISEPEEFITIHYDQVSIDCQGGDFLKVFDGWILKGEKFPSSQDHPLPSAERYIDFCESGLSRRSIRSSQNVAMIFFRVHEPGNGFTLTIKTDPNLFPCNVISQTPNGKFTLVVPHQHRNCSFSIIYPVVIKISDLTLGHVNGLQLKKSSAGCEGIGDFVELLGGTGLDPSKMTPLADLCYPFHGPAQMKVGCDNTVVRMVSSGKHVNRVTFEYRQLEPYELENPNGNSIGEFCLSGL

[7] = CRF-BP/CRF-R2 complex antagonists, dose response, cell-based, uHTS hits, 384-well (AID 651639); format: functional, Homo sapiens; conditions: read-out: IC50_Mean
[8] = target: T2, Corticotropin-releasing factor receptor 2/Corticotropin-releasing factor-binding protein; test: activators of CRF receptor 2 with binding protein – uHTS hits, confirmation (AID 602473); format: functional; conditions: read-out: EC50_Mean
[9] = tested on: INS1; test: beta cell apoptosis inhibitors, cytokine rescue, dose response, luminescence, retest (AID 449756); format: functional, cell-based; conditions: Rattus norvegicus;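 also: cell death triggered by IL-1 beta plus TNF-alpha plus IFN-gamma mixture; protective hits raise ATP signal compared with cytokine alone wells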
[10] = target: Luciferin 4-monooxygenase (Photinus pyralis, UniProt P08659); test: firefly luciferase enzyme inhibitors, dose response, biochemical, luminescence (AID 1891)
[11] = Luminescence Cell-Based Dose Confirmation HTS to Identify Inhibitors of Platelet Dense Granule Release. [Related pubchem assays: 1663 (Primary HTS), 1678 (Summary of Project)]; format: functional
[12] = HepG2 cell cytotoxicity, dose response, cytotoxicity control for Shn3 inhibitor project, CellTiter-Glo, cherry-picked (AID 624134); format: functional, cell-based
[13] = Shn3 3'UTR reporter inhibitors, dose response, cell-based, Clone20 osteoblasts, firefly luciferase, cherry-picked (AID 624132); format: functional;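 also: firefly luciferase luminescence from reporter carrying the Shn3 3'UTR in osteoblasts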
[14] = target: Protein Wnt-3a (Mus musculus, UniProt P27467); test: Wnt3a-driven reporter signaling inhibition, dose response, selectivity assay for Gli-SUFU antagonist project, Wnt-LIGHT cells, luminescence (AID 651570); format: functional; conditions: read-out: IC50_Mean;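 also: Wnt-LIGHT reporter cells stimulated with conditioned medium from Wnt3a-producing cells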
[15] = control 3'UTR Renilla luciferase suppression, dose response, counter-screen for Shn3 inhibitor project, cell-based, Clone20-Shn3RL, cherry-picked (AID 624133); format: functional
[16] = target: Heat shock protein HSP 90-alpha (Homo sapiens, UniProt P07900); format: functional, organism-based
[17] = target: Nonstructural protein 1 (Influenza A virus, UniProt Q194T2); format: functional, Influenza A virus (A/California/07/2009(H1N1))
[18] = target: Cytochrome P450 3A4 (Homo sapiens, UniProt P08684);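 also: CYP3A4 tested as one member of a cytochrome P450 panel screen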
[19] = target: T3, Protein RecA (Mycobacterium tuberculosis, UniProt P9WHJ3); test: Fluorescence Cell-Free Homogeneous Dose Retest to Identify Inhibitors of RecA-Intein Splicing Activity. [Related pubchem assays (depositor defined):AID2097, AID2223, AID489010, AID492950]; format: functional
T3 sequence (P9WHJ3 whole entry): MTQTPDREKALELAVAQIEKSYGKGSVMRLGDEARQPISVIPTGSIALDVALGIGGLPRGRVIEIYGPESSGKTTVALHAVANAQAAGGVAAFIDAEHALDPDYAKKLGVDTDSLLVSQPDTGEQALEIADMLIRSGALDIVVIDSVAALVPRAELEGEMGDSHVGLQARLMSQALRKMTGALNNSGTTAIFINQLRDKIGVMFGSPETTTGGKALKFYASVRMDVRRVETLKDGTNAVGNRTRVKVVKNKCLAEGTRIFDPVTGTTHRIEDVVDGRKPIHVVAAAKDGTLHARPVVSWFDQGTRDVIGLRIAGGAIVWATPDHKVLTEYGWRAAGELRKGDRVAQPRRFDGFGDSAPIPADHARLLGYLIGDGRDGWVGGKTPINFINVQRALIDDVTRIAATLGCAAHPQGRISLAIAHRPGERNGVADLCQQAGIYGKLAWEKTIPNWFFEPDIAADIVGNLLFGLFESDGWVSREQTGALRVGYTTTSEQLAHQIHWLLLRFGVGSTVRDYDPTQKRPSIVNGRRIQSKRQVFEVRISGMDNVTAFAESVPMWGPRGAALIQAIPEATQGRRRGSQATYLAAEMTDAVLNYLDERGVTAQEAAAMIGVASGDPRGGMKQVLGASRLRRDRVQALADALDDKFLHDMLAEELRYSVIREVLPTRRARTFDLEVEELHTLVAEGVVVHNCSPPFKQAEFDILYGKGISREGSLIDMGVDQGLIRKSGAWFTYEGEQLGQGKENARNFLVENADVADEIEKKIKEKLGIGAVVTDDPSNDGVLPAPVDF

[20] = target: T4, Caspase-6 (Homo sapiens, UniProt P55212); test: human caspase-6 inhibitors, dose response, biochemical, VEID-R110 fluorescence, cherry-pick (AID 720632)
T4 sequence (P55212 whole entry): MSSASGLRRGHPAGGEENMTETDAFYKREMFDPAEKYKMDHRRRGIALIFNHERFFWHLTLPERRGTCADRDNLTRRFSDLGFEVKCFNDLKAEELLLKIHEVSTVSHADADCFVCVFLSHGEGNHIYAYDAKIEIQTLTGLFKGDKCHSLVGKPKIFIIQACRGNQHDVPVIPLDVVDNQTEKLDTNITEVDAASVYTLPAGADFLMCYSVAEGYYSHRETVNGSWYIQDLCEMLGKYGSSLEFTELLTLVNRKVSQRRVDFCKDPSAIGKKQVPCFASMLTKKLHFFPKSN

[21] = target: T5, Tyrosyl-DNA phosphodiesterase 2 (Homo sapiens, UniProt O95551); test: human TDP2 enzyme inhibitors, dose response, biochemical, epi absorbance, IC50 (AID 743297)
T5 sequence (O95551 whole entry): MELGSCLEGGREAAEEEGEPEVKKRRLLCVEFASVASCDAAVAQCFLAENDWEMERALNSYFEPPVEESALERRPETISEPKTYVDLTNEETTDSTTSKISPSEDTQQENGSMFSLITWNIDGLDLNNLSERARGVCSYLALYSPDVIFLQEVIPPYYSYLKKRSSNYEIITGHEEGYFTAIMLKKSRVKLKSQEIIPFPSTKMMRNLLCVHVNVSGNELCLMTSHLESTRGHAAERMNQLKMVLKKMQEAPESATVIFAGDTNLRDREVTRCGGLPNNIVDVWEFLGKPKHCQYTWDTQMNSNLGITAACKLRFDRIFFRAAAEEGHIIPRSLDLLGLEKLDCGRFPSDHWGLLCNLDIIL

[22] = target: T6, Replicative DNA helicase DnaB (Mycobacterium tuberculosis, UniProt P9WMR3); test: DnaB intein splicing inhibitors, dose response, biochemical, cell-free fluorescence (AID 449749); format: functional
T6 sequence (P9WMR3 whole entry): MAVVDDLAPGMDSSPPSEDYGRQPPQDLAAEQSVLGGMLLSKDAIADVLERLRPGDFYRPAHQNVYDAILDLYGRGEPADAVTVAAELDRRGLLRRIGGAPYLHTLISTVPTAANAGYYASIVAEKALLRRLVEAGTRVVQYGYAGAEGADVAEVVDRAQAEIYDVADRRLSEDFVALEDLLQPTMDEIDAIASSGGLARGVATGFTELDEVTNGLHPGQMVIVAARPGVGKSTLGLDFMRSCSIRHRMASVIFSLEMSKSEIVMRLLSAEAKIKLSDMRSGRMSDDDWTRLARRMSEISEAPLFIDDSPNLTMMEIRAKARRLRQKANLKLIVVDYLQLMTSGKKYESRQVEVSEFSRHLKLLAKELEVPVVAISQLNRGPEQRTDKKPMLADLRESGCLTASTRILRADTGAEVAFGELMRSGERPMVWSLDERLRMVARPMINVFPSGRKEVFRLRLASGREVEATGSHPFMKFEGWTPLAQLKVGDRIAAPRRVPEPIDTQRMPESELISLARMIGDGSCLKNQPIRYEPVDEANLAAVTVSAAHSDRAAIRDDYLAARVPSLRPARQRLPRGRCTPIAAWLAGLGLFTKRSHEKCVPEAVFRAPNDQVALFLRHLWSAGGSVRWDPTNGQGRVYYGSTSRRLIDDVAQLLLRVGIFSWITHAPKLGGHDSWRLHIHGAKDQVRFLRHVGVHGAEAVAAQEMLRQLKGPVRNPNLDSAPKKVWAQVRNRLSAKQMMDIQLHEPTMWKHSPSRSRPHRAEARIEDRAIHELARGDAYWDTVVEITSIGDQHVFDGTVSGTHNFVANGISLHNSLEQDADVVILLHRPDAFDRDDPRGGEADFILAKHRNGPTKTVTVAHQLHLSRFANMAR

Chain of Protein Wnt-3a (P27467 whole entry): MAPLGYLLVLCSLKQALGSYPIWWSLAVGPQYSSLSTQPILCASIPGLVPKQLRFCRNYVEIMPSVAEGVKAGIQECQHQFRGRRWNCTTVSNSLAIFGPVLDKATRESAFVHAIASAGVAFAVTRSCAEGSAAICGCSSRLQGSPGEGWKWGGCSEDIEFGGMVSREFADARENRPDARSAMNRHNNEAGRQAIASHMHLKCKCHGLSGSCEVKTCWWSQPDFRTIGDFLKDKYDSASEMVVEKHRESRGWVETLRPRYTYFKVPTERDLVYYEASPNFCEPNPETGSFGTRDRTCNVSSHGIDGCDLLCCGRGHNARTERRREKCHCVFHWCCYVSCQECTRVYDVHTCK
Chain of Cytochrome P450 3A4 (P08684 whole entry): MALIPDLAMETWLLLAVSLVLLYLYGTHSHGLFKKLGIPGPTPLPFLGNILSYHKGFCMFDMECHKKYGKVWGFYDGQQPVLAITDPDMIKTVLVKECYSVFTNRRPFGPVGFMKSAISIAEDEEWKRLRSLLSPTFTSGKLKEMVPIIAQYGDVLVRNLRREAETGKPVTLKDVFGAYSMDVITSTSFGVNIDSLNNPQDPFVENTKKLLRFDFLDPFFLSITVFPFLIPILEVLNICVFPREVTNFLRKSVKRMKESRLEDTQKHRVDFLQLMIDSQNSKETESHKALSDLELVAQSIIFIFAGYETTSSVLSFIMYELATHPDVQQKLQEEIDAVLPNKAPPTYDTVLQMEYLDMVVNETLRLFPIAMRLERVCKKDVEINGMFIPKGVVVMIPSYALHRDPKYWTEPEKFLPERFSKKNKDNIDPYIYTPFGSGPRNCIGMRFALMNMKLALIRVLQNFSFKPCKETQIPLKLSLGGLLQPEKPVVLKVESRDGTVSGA
Chain of Luciferin 4-monooxygenase (P08659 whole entry): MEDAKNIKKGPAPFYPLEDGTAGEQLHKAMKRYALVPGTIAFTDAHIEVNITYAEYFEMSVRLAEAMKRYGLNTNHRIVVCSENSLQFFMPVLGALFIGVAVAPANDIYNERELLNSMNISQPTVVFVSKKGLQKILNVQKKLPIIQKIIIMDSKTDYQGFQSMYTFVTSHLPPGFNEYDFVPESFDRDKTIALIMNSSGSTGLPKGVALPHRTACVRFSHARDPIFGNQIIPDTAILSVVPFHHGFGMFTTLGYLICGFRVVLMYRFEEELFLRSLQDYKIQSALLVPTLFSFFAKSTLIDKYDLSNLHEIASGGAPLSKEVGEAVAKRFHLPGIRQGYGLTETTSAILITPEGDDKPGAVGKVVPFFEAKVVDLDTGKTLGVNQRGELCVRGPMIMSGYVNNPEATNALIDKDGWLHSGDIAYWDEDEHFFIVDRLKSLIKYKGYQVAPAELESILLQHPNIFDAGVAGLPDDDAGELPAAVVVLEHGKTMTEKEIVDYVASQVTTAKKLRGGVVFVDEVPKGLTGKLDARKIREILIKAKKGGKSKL
Chain of Genome polyprotein (P29990 2492-3391 limits assumed): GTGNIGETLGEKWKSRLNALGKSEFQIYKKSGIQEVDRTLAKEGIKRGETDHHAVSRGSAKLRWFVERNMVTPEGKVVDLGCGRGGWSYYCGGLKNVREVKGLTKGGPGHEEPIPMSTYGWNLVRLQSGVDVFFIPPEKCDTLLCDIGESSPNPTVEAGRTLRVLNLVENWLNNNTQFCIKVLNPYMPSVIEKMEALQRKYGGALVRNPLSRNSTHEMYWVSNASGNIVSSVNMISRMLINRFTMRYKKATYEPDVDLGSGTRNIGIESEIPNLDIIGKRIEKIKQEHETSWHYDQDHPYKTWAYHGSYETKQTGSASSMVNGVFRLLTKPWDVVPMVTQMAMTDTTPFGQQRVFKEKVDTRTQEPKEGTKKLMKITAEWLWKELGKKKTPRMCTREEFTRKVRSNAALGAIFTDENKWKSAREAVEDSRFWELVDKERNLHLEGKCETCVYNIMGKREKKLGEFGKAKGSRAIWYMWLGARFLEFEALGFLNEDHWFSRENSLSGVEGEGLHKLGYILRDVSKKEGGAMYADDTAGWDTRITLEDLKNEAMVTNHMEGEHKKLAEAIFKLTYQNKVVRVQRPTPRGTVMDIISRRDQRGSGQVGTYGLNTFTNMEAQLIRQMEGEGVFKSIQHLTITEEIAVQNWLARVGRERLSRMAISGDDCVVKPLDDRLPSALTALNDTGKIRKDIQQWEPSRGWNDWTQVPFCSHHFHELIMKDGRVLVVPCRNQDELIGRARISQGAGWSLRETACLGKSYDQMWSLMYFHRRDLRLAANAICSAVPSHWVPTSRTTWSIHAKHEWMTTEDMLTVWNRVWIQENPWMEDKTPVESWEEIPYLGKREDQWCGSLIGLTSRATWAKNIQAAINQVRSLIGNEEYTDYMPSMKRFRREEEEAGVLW
Chain of Nonstructural protein 1 (Q194T2 whole entry): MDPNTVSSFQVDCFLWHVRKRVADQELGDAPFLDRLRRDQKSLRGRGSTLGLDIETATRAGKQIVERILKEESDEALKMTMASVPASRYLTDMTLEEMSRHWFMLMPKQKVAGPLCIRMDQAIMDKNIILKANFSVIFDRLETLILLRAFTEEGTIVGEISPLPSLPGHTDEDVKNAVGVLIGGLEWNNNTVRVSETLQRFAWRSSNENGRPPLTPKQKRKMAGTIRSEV

## C=CCOc1ccc(/C=C2\SC(=S)N(NS(=O)(=O)c3ccc(C)cc3)C2=O)cc1
[1]
  AC50: 11.7 µM (active)
[2]
  EC50: 1.66 µM (active)
[3]
  CC50: 25 µM (active)
[4]
  EC50: > 160 µM (inactive)
[5]
  IC50: 32.9 µM (active)

## COc1ccc(-c2csc(NC(=O)CSc3nc(SC)ns3)n2)cc1
[6]
  IC50: 1.75 µM (active)
[7]
  IC50: 4.64 µM (active)
[8]
  EC50: > 53 µM (inactive)

## Cc1cccnc1CN1CCN(C(=O)c2cc(COc3ccc4ncccc4c3)on2)CC1
[9]
  AC50: 3.77 µM (active)
[10]
  EC50: > 112 µM (not active)
[11]
  EC50: > 112 µM (not active)
[12]
  AC50: 7.57 µM (active)
[13]
  AC50: 2.1 µM (active)
[14]
  IC50: 1.62 µM (active)
[15]
  AC50: 2.78 µM (active)

## CCN1/C(=C/c2ccc3cc(C)cc(C)c3[n+]2CC)Sc2cc(C)ccc21
[16]
  AC50: 2.86 µM (active)
[1]
  AC50: 7.93 µM (active)
[17]
  IC50: 17.6 µM (active)

## COc1ccc(-c2nn(-c3ccccc3)cc2/C=N/NC(=O)c2ccc(Br)o2)cc1
[18]
  AC50: 15.8 µM (inconclusive)
[3]
  CC50: 18.8 µM (active)
[14]
  IC50: 7.01 µM (active)

## Cc1nnc(N/N=C/c2ccccc2O)n1N
[19]
  EC50: 4.08 µM (active)
[20]
  AC50: 13.3 µM (active)
[21]
  IC50: > 128 µM (inactive)
[22]
  AC50: 7.65 µM (active)
